Where two headings read alike, the source gives them in different places.
Columns and labels:
[1] = system: OCI-AML5 cells expressing shRNA targeting CUL4A or CUL4B; assay: Dose response in OCI-AML5 expressing shRNAs targeting CUL4A, CUL4B or control; type: cell-based, H. sapiens; details: ratio of IC50 in shCUL4A vs shCTRL OCI-AML5 cells
[2] = molecular target: T1, CDK9/CyclinT (Homo sapiens, UniProt P50750); assay: CDK9/CyclinT in vitro kinase activity, single concentration 1 μM; type: biochemical; details: single concentration 1 μM
T1 construct: purchased BPS Bioscience 79628
T1 sequence (P50750 whole entry): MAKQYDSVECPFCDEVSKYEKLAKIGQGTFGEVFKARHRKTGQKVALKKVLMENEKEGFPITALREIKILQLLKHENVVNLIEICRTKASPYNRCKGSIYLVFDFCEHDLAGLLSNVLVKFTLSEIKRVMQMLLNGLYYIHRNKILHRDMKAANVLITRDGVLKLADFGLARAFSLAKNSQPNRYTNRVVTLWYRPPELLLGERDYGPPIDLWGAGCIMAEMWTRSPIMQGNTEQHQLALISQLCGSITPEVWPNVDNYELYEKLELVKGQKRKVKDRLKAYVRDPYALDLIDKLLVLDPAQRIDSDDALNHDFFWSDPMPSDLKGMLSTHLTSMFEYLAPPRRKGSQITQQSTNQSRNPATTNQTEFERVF
T1 sequence (O60563 whole entry partner): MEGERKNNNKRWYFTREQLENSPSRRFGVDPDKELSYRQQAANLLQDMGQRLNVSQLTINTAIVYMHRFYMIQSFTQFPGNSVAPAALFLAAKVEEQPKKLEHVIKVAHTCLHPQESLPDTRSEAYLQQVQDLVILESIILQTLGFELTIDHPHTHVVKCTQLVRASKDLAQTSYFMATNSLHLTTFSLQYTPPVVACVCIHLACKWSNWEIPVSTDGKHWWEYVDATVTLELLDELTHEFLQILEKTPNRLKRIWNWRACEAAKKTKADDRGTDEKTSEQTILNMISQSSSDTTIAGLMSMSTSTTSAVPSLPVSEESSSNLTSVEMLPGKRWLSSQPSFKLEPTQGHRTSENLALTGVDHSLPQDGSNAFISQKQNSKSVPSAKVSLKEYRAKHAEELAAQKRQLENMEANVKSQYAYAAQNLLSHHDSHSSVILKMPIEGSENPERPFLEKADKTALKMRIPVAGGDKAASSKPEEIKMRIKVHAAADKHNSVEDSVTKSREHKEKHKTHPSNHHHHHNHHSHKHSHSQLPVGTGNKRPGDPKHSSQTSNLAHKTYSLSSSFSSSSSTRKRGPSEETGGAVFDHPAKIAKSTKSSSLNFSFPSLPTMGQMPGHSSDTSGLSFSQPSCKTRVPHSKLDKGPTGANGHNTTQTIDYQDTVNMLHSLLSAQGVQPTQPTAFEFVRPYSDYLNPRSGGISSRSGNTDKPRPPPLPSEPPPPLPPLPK
Description: (§1) Kinase activity was assessed using the kinase assay kits from BPS Bioscience for CDK1, CDK9 and CDK12 with Kinase Glo MAX in duplicates. Compounds were tested at a single concentration of 1 μM for CDK1 and CDK9 activity, and in a dilution ranging from 0.64 nM to 50 μM for CDK12 activity. Chemiluminescence was read using the Neo Synergy BioTek plate reader.

[3] = system: cyclin KeGFP; assay: Cyclin KeGFP reporter system (eGFP/mCherry MFI by flow cytometry);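 also: 10 μM compound for 3 h relative to DMSO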; type: cell-based, H. sapiens; details: cyclin K-eGFP reporter
Procedure, shortened: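 Degradation read as eGFP-to-mCherry MFI ratio relative to DMSO controls, from flow cytometry of the selected G7 clone of OCI-AML5 cells transduced with the cyclin KeGFP reporter.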

[4] = system: OCI-AML5 cells expressing shRNAs targeting CDK1, 2, 4, 7, 9, cyclin K; assay: Dose response in OCI-AML5 expressing shRNAs targeting CDK1, 2, 4, 7, 9, cyclin K or control; type: cell-based, H. sapiens; details: for Class: class from shRNA IC50 profile and cyclin K-eGFP degradation; for class based on cellular selectivity: IC50 in shRNA OCI-AML5 cells and cyclin KeGFP degradation
[5] = molecular target: T2, CDK1 (Homo sapiens, UniProt P06493); assay: CDK1 in vitro kinase activity, single concentration 1 μM; type: biochemical; details: single concentration 1 μM
T2 construct: purchased BPS Bioscience 79597
T2 sequence (P06493 whole entry): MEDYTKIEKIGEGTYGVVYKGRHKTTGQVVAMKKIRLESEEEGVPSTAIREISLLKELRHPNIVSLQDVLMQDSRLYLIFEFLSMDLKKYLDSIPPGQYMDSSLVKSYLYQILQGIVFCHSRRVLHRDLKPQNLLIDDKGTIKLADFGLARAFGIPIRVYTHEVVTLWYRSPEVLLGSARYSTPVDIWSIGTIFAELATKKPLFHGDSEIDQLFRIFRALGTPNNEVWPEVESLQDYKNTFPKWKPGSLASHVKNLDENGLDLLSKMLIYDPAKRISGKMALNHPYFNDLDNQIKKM
T2 sequence (P14635 whole entry partner): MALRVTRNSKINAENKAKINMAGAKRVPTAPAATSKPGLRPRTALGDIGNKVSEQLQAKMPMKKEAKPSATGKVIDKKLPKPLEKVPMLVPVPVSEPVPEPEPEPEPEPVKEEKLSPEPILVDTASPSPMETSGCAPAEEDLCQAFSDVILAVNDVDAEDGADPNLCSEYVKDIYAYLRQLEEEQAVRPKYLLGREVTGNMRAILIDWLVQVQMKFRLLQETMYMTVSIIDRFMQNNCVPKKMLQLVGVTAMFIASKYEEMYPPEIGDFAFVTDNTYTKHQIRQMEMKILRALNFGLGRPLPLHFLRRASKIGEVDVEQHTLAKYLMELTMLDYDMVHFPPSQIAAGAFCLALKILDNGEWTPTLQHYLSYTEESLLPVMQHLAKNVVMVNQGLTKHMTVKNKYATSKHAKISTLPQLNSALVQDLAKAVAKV
Description: as §1

[6] = system: OCI-AML5 cells; assay: Dose-response proliferative assay in OCI-AML5 (4 days, CellTiterGlo); type: cell-based, H. sapiens; details: read-out: IC50 in AML5
Procedure, shortened: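 Viability assessed after 4 days of compound exposure at 37 °C, 5% CO2. Compounds tested as 8 dilutions (1:4, 10 μM to 0.5 nM) on 300 OCI-AML5 cells/well grown in αMEM with 10% heat-inactivated FBS and 10 ng/mL GM-CSF.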

[7] = Homo sapiens, OCI-AML-5, OCI-AML5 expressing shRNA CCNK (cyclin K), read-out: IC50 shRNA CCNK
[8] = Homo sapiens, OCI-AML-5, OCI-AML5 expressing shRNA CDK1, read-out: IC50 shRNA CDK1
[9] = Homo sapiens, OCI-AML-5, OCI-AML5 expressing shRNA CDK2, read-out: IC50 shRNA CDK2
[10] = Homo sapiens, OCI-AML-5, OCI-AML5 expressing shRNA CDK4, read-out: IC50 shRNA CDK4
[11] = Homo sapiens, OCI-AML-5, OCI-AML5 expressing shRNA CDK7, read-out: IC50 shRNA CDK7
[12] = Homo sapiens, OCI-AML-5, OCI-AML5 expressing shRNA CDK9, read-out: IC50 shRNA CDK9
[13] = Homo sapiens, OCI-AML-5, OCI-AML5 cells
[14] = OCI-AML5 expressing shRNA CCNK (cyclin K), read-out: IC50 shRNA CCNK
[15] = OCI-AML5 expressing shRNA CDK1, read-out: IC50 shRNA CDK1
[16] = OCI-AML5 expressing shRNA CDK2, read-out: IC50 shRNA CDK2
[17] = OCI-AML5 expressing shRNA CDK4, read-out: IC50 shRNA CDK4
[18] = OCI-AML5 expressing shRNA CDK7, read-out: IC50 shRNA CDK7
[19] = OCI-AML5 expressing shRNA CDK9, read-out: IC50 shRNA CDK9

Row | Compound | Ratio shCUL4A/shCTRL [1] | inhibition at 1 µM [2] | % degradation cyclin K-eGFP [3] | IC50 [4, 7] | IC50 [4, 8] | IC50 [4, 9] | IC50 [4, 10] | IC50 [4, 11] | IC50 [4, 12] | Class [4] | inhibition at 1 µM [5] | IC50 [6, 13] | class based on cellular selectivity [4] | also measured
1 | O=C(Cc1ccc(-c2ccccc2)cc1)Nc1ncc(SCc2cccnc2)s1 [UOM-005429] | 2.25 | 67% | 80% | 148 nM | 493 nM | 457 nM | 408 nM | 525 nM | 367 nM | 1 | 25% | 422 nM | – | –
2 | C=C(C(=O)Nc1ncc(SCc2cccnc2)s1)c1ccc(CC(C)C)cc1 [UOM-005430] | 0.36 | 82% | 60% | 7680 nM | 7310 nM | > 10000 nM | > 10000 nM | > 10000 nM | 7720 nM | mixed 1-2 | 83% | > 10000 nM | – | –
3 | COc1ccc2cc([C@H](C)C(=O)Nc3ncc(SCc4cccnc4)s3)ccc2c1 [UOM-005431] | 2.43 | – | 78% | – | – | – | – | – | – | 1 | – | – | – | % CDK9 inhibition [2]: 78%; IC50 [4, 14]: 396 nM; IC50 [4, 15]: 1080 nM; IC50 [4, 16]: 1160 nM; IC50 [4, 17]: 979 nM; IC50 [4, 18]: 1080 nM; IC50 [4, 19]: 876 nM; % CDK1 inhibition [5]: 53%; IC50 ([6]; OCI-AML5 cells): 895 nM
4 | O=C(Cc1ccc(CNC(=O)OCC2c3ccccc3-c3ccccc32)cc1)Nc1ncc(SCc2cccnc2)s1 [UOM-005432] | 1.02 | – | 5% | – | – | – | – | – | – | 2 | – | – | Class II | % CDK9 inhibition [2]: 62%; IC50 [4, 14]: 753 nM; IC50 [4, 15]: 293 nM; IC50 [4, 16]: 886 nM; IC50 [4, 17]: 895 nM; IC50 [4, 18]: 807 nM; IC50 [4, 19]: 391 nM; % CDK1 inhibition [5]: 100%; IC50 ([6]; OCI-AML5 cells): 840 nM
5 | CC(=O)Nc1ccc(CC(=O)Nc2ncc(SCc3cccnc3)s2)cc1 [UOM-005473] | 2.59 | 90% | 67% | 78.6 nM | 154 nM | 197 nM | 227 nM | 221 nM | 152 nM | mixed 1-2 | 70% | 210 nM | – | –
6 | O=C(Cc1ccc(NC(=O)c2cccnc2)cc1)Nc1ncc(SCc2cccnc2)s1 [UOM-005475] | 1.05 | 63% | 0% | 574 nM | 314 nM | 730 nM | 709 nM | 658 nM | 299 nM | 2 | 100% | 750 nM | – | –
7 | O=C(Cc1ccc(NC(=O)c2ccncc2)cc1)Nc1ncc(SCc2cccnc2)s1 [UOM-005476] | 0.87 | 66% | 1% | 576 nM | 350 nM | 574 nM | 626 nM | 646 nM | 270 nM | 2 | 87% | 660 nM | Class II | –
8 | O=C(Cc1coc2cc3c(cc12)CCC3)Nc1ncc(SCc2cccnc2)s1 [UOM-005479] | 1.94 | 100% | 76% | 888 nM | 2240 nM | 2420 nM | 1920 nM | 2270 nM | 1690 nM | 1 | 37% | 1950 nM | Class I (effective cyclin K MGDs (decreased IC50 in cyclin K depleted cells only, and >65% degradation of cyclin KeGFP)) | –
9 | O=C(Cc1ccc(-c2ccncc2)cc1)Nc1ncc(SCc2cccnc2)s1 [UOM-005550] | 0.87 | 64% | 35% | 481 nM | 566 nM | 912 nM | 897 nM | 916 nM | 554 nM | mixed 1-2 | 35% | 1070 nM | – | –
10 | CN(C)c1ccc(CC(=O)Nc2ncc(C(C)(C)C)s2)cc1 [UOM-005605] | 4.63 | – | 76% | – | – | – | – | – | – | 1 | – | – | Class I (effective cyclin K MGDs (decreased IC50 in cyclin K depleted cells only, and >65% degradation of cyclin KeGFP)) | % CDK9 inhibition [2]: 5%; IC50 [4, 14]: 341 nM; IC50 [4, 15]: 1140 nM; IC50 [4, 16]: 1140 nM; IC50 [4, 17]: 996 nM; IC50 [4, 18]: 1080 nM; IC50 [4, 19]: 968 nM; % CDK1 inhibition [5]: 1%; IC50 ([6]; OCI-AML5 cells): 1040 nM
11 | O=C(Cc1ccc(N2CCOCC2)cc1)Nc1ncc(SCc2cccnc2)s1 [UOM-005606] | 1.07 | 65% | 45% | 785 nM | 700 nM | 1440 nM | 1840 nM | 1470 nM | 794 nM | mixed 1-2 | 81% | 1330 nM | – | –
